Data: patent publication US20210038589A1, “USES, COMPOSITIONS AND METHODS” (priority 2018, published 2021)

Legend:
[1] = system: pyramidal cell action potentials in hippocampal area CA3; experiment: Concomitant LFP and single unit recordings: AP firing and spike-phase coupling after Aβ; format: cell-based, mouse; conditions: inhibitor applied after the application of Aβ
Method: Having studied the synaptic effects of two T-type Ca^2+ channel inhibitors, we then proceeded to examine their ability to modulate the synchronization of hippocampal neuronal activity. We performed concomitant recordings of field potentials and single unit recordings to analyze the synchronization of action potentials with the phase of the gamma oscillations (27). […] To determine the spike phase of PC during a gamma oscillation, spike-phase coupling was calculated. […] This is observed as a slight shift to the right in the AP-phase distribution (7A,D). The desynchronization of PC activity is also evidenced by the reduction of the summation vector length (Pmzd: control: 0.3764±0.048, Aβ: 0.226±0.05, n=7, p=0.0078, FIG. 7B; Penfl: control: 0.3976±0.054, Aβ: 0.2661±0.05566, n=8, p=0.0078, FIG. 7E), which is represented by the change in the length of the arrow in FIGS. 7A and D.
Patch-clamp (whole-cell) recordings were performed from visually identified CA3 PC using The SliceScope (Scientifica, UK). Action Potentials (APs) were recorded from pyramidal cells in area CA3 as single units (submerged chamber) using standard ACSF-containing patch electrodes. For EPSC recordings (Vh=−70 mV) a potassium-based intracellular solution was used (in mM): 122.5 K-gluconate, 17.5 KCl, 4 ATPNa, 0.4 GTPNa, 10 HEPES, 0.2 EGTA, 2 MgCl, set to pH 7.2-7.3 with KOH, osmolarity 270-280 mOsm. For IPSC recordings (Vh=0 mV) a cesium-based intracellular solution was used (in mM): 140 CsMeSO4, 10 HEPES, 0.2 EGTA, 4 MGCl, 2 ATPNa, 0.2 GTPNa, 5 QX-314, set to pH 7.2-7.4 with CsOH, osmolarity 270-280 mOsm.
Spike phase-coupling analysis was performed on concomitant LFP recordings and single unit recordings using MATLAB custom-written routines in order to relate the PC spiking activity to ongoing gamma oscillations (48). To do this LFP recordings were pre-processed using a band pass filter set to 20-60 Hz (highpass: RC-single pole, lowpass: RC-single pole) using Clampfit 10.7. AP were detected using an amplitude threshold and the instantaneous phase of gamma oscillation was calculated using a Hilbert transform in order to determine the phase-angle at which each action potential occurred during ongoing oscillations. Phase-angles and gamma oscillations-phases were represented in polar plots and expressed in radians with the peak of the oscillation cycle corresponding to 0π and the valley corresponding to ±π in the polar plots. In order to search for the synchronization level of AP firing, AP phase-angles frequency-distribution were normalized, a Gaussian function was fitted and the half-width at half-maximum was then calculated as a measure of the synchronization level: the more AP are fired on the same phase-angle the more synchronized the neuronal activity is. The preferred phase-angle was calculated by averaging the AP phase-angles distribution of all the experiments and is represented by an arrow in the polar-plots. To test whether neurons fired in a phase-related manner all concomitant recordings were tested for circular uniformity using Rayleigh's test. Only recording with p values below 0.05 were considered for the analysis.

[2] = system: gamma oscillations in mouse hippocampal slices; experiment: Rescue of gamma oscillations previously degraded by Aβ in hippocampal slices (submerged chamber); format: cell-based; conditions: 5 μM compound applied after 20 min of 1 μM Aβ, Aβ still present
Method: Hippocampal slices were placed in a submerged recording chamber where gamma oscillations were induced by bath perfusion of 100 nM KA and allowed to stabilize for 20-30 min. Continuous recordings of LFP gamma oscillations were performed in 4 different conditions (FIG. 5). All groups were initially activated with Kainate. In a control group of slices oscillations were recorded for 40 min after stabilization without any other compound addition (control, n=5, grey). All other groups were perfused with 1 μM Aβ after stabilization of the oscillations for a minimum of 20 min. For these experiments the concentration of Aβ applied was increased to 1 μM in order to overcome the method-dependent lower signal amplitude due to the submerged recording conditions (8).
Hippocampal slices were placed on a submerged recording chamber where gamma oscillations were induced by bath perfusion of 100 nM Kainate and allowed to stabilize for 20-30 minutes. Continuous recordings of LFP gamma oscillations were performed in 3 different conditions. All groups were initially activated with kainate. In a control group of slices oscillations were recorded for 40 minutes after their stabilization without any other compound addiction (control, n=5; see FIG. 5). All the other groups were perfused with Aβ 1 μM after the stabilization of the oscillations for a minimum of 20 minutes.

[3] = system: hippocampal CA3 pyramidal cells; experiment: Patch-clamp EPSC/IPSC recordings after Aβ; format: cell-based, mouse; conditions: 5 μM, after 1 μM Aβ, 100 nM KA
Method: In this study, we recorded spontaneous synaptic activity in hippocampal CA3 pyramidal cells activated with 100 nM KA (20 min) in a submerged recording chamber. […] In contrast to its action on EPSCs, application of Aβ resulted, as previously shown, in decreased GABA receptor mediated IPSCs (FIG. 6D). […] Patch-clamp (whole-cell) recordings were performed from visually identified CA3 PC using The SliceScope (Scientifica, UK). Action Potentials (APs) were recorded from pyramidal cells in area CA3 as single units (submerged chamber) using standard ACSF-containing patch electrodes. For EPSC recordings (Vh=-70 mV) a potassium-based intracellular solution was used (in mM): 122.5 K-gluconate, 17.5 KCl, 4 […], 0.2 EGTA, 2 MgCl, set to pH 7.2-7.3 with KOH, osmolarity 270-280 mOsm. For IPSC recordings (Vh=0 mV) a cesium-based intracellular solution was used (in mM): 140 CsMeSO4, 10 HEPES, 0.2 […]-314, set to pH 7.2-7.4 with CsOH, osmolarity 270-280 mOsm. EPSCs and IPSCs were detected off-line using MiniAnalysis software (Synaptosoft, Decatur, Ga., USA). Charge transfer, event amplitude and inter-event-interval (IEI) were analyzed using Microsoft Excel for Mac 2011 (Microsoft Office) and GraphPad Prism (GraphPad Software, USA) with the result representing average values taken over 1 min periods.

[4] = system: Drosophila melanogaster model expressing pan-neuronally human Aβ1-42 peptide; experiment: Negative geotaxis climbing assay in Aβ-expressing Drosophila; conditions: for individuals reached the top of the climbing column: ElavArc2E flies, 5 μM in food from day 1 after hatching
Method: The data shown represent results from a cohort of flies tested every 10 days for 35 days. Data are presented as average±SEM. Results were tested for significance using ANOVA with Bonferroni Post Test to compare all different groups. […] Viable flies were counted daily to assess differences in longevity between wild type and experimental flies and between experimental not treated or treated with the compounds. […] Briefly, flies display a negative geotaxis response when given a mechanical stimulus. When tapped to the bottom of a vial, flies normally orient themselves rapidly and begin to climb to the top. […] FIG. 11A). […] Approximately 10 flies were placed in an empty plastic vial. The vial was gently tapped to knock the flies to the bottom and the flies were recorded during their subsequent climbing to the top of the vial (negative geotaxis). […] The data shown represent results from a cohort of flies tested every 10 days for 35 days.

Row | SMILES | AP count (AP firing frequency) [1] | preferred phase angle [1] | summation vector length [1] | gamma power after treatment application, relative to Aβ [2] | rescue of Aβ induced increase in EPSCs frequency, amplitude and charge transfer [3] | rescue of Aβ-induced decrease in IPSCs (frequency, amplitude, charge transfer) [3] | individuals reached the top of the climbing column ([4]; at 5 days) | individuals reached the top of the climbing column ([4]; at 15 days) | individuals reached the top of the climbing column ([4]; at 25 days) | effect of the drug on control strains in the behavioural test ([4]; control fly strains given the drug)
1 | OC1(c2ccc(Cl)c(C(F)(F)F)c2)CCN(CCCC(c2ccc(F)cc2)c2ccc(F)cc2)CC1 [Penfluridol] | 1.79±0.43 Hz | 4.09±0.2 radians | 0.355±0.05 | 2.29±0.38 of Aβ | completely rescued | neither Pimozide nor Penfluridol were able to rescue |  |  |  | 
2 | O=c1[nH]c2ccccc2n1C1CCN(CCCC(c2ccc(F)cc2)c2ccc(F)cc2)CC1 [Pimozide] | 2.23±0.51 Hz | 4.180±0.15 radians | 0.335±0.072 |  |  |  | 97.4±0.3% | 83.2±0.6% | 38.3±0.5% | no adverse effect
